Results reported in US4096174A, “Anionic naphthalene thioureido-diphenyloxides” (American Cyanamid Company, priority 1977, dated 1978).
Where a name gives a salt, the structure may show the parent alone.

What was measured:
[1] = tested on: late components of human complement (C3-C9); assay: Test, Code 035 (C3-C9 inhibitor), lysis of EAC 142; format: biochemical; conditions: two-fold serial dilution assay; higher well number indicates higher activity
From the text: An active inhibitor protects C2 from C1 and C4; (ii) Test, Code 035 (C3-C9 inhibitor) - This test determines the ability of the late components of human complement (C3-C9) to lyse EAC 142 in the presence of appropriate dilutions of the test compound. An active inhibitor protects EAC 142 from lysis by human C3-C9; (iii) Test, Code 036 (C-Shunt inhibitor) - In this test human erythrocytes rendered fragile are lysed in autologous serum via the shunt pathway activated by cobra venom factor in the presence of appropriate dilutions of the test compound. Inhibition of the shunt pathway results in failure of lysis; (iv) Forssman Vasculitis Test - Here, the well known complement dependent lesion, Forssman Vasculitis, is produced in guinea pigs by intradermal injection of rabbit anti-Forssman antiserum. […]

whole complement = assay: Complement Level Reduction Test (in vivo, capillary tube assay of serum); design: species or system guinea pig; conditions: 200 mg/kg

## O=S(=O)(O)c1cc(NC(=S)Nc2ccc(Oc3ccc(NC(=S)Nc4cc(S(=O)(=O)O)cc5cc(S(=O)(=O)O)cc(S(=O)(=O)O)c45)c(NC(=S)Nc4cc(S(=O)(=O)O)cc5cc(S(=O)(=O)O)cc(S(=O)(=O)O)c45)c3)cc2NC(=S)Nc2cc(S(=O)(=O)O)cc3cc(S(=O)(=O)O)cc(S(=O)(=O)O)c23)c2c(S(=O)(=O)O)cc(S(=O)(=O)O)cc2c1 [8,8',8",8'"-{Oxybis[4,1,2-phenylbis(2-thioureylene)]}-tetra-1,3,6-naphthalenetrisulfonic acid dodecasodium salt]
[1]
  C-Late 035 Wells: +2 Wells
Whole complement; Intraperitoneal, 30 minutes
  In Vivo Activity (Guinea Pig) % Inhibition: -82%
Whole complement; Intraperitoneal, 60 minutes
  In Vivo Activity (Guinea Pig) % Inhibition: -88%
Whole complement; Intraperitoneal, 120 minutes
  In Vivo Activity (Guinea Pig) % Inhibition: -94%
Whole complement; Intravenous, 2 minutes
  In Vivo Activity (Guinea Pig) % Inhibition: -98%
Whole complement; Intravenous, 30 minutes
  In Vivo Activity (Guinea Pig) % Inhibition: -95%
Whole complement; Intravenous, 120 minutes
  In Vivo Activity (Guinea Pig) % Inhibition: -91%
